# Experimental data published in patent US10273517B2 (The Board of Regents of the University of Oklahoma, priority 2011, dated 2019).
# “Also recorded” adds a separate entry of the source.
# Key:
# [1] = biological target: heparin lyase I (Pedobacter heparinus, UniProt Q05819); assay: GAG degrading enzyme challenge: heparin lyase I; assay type: in vitro ADME
# From the text: (§1) Because of this finding, it is believed that while CtTS is able to utilize heparosan as an acceptor molecule due to a hypothetical shared structural feature, this GAG is not the native substrate.
# [2] = test system: recombinant Comamonas testosteronan synthase (CtTS); assay: Radiolabeled sugar incorporation assay, divalent cation specificity of CtTS; assay type: biochemical, Comamonas testosteroni KF-1; conditions: 5 mM Mg2+ or 5 mM Mn2+ or 2 mM EDTA; 30 minutes at 22° C.
# Procedure: Radiolabeled sugar incorporation assays were performed (30 minutes at 22° C., as described in methods) in the presence of 5 mM Mg^2+ or 5 mM Mn^2+ or 2 mM EDTA.
# (§2) Radiolabeled sugar incorporation assays (25 μl, 30 minutes at 22° C.) were performed using clarified lysates (60 μg total protein) in the presence of 0.05 mM UDP-GlcUA or UDP-GlcNAc as carrier with UDP-[^3H]GlcUA or UDP-[^3H]GlcNAc (0.1 μCi/assay) (NEN Perkin Elmer, Waltham, Mass.) with various unlabeled UDP-sugars (1 mM) or no second sugar as a negative control. The reaction buffer was 50 mM Tris, pH 7.2, 5 mM MgCl2; these conditions were obtained after limited optimization trials. Certain reactions used acceptors (1 μg) to bypass de novo initiation, including HA, heparosan, or Ct polysaccharide (sonicated 10 minutes on ice to increase the number of termini).
# (§3) Reactions were incubated at the indicated temperatures for the times noted, and then stopped with 2% final SDS and separated by descending paper chromatography (65:35 ethanol/1 M ammonium acetate buffer, Whatman 3MM paper). This method enabled the separation of GAG polysaccharides with greater than ^˜14 sugar units, which remain at the origin, from smaller oligomers and unincorporated nucleotide sugars that migrate down the strip. The origin of the strip was cut out and subjected to liquid scintillation counting (BIOSAFE™, RPI Corp, Mt. Prospect, Ill.).
# [3] = test system: recombinant Comamonas testosteronan synthase (CtTS); assay: Radiolabeled sugar incorporation assay, donor sugar specificity of CtTS; assay type: biochemical, Comamonas testosteroni KF-1; conditions: unlabeled UDP-sugar 1 mM, clarified lysate, 30 minutes at 22° C.; for incorporation of [3H]GlcNAc with the unlabeled UDP-sugar as second precursor: UDP-[3H]GlcNAc tracer; for activity (incorporation of [3H]GlcUA) with the unlabeled UDP-sugar as second precursor: UDP-[3H]GlcUA tracer
# Procedure: FIG. 3 graphically depicts the donor specificity of CtTS.
# In order to determine the preferred hexosamine sugar donor utilized for putative GAG-like heteropolysaccharide biosynthesis, activity assays were performed with clarified lysates from recombinant bacteria expressing CtTS using two different UDP-sugars simultaneously in polymerization reactions in vitro. […] By further studying acceptor specificity and using GAG degrading enzymes that are specific for these GAGs, the nature of the polysaccharide formed by CtTS in vitro was characterized.
# as §2, §3
# [4] = test system: recombinant Comononas testosteroni synthase (CtTS); assay: Polymer grafting of testosteronan onto acceptors using CtTS (agarose gel, stoichiometric size control); assay type: biochemical, Comamonas testosteroni; conditions: acceptor 15 or 30 μM, monosaccharides/glycosides first extended step-wise with two UDP-sugars, Stains-all
# Procedure: The recombinant Comononas testosteroni synthase was incubated with both UDP-sugars and various acceptors (note: monosaccharides or glycosides first subjected to two extension steps via CtTS enzyme before adding both UDP sugars) OR ‘no acceptor’ in reaction buffer. The reactions were then subjected to agarose gel analysis with Stains-all dye detection. From left to right, the lanes are as follows: (1) HA LoLadder standard; (2) ‘no acceptor’ (de novo synthesis); (3) p-Nitrophenyl-β-D-glucuronide (15 μM); (4) p-Nitrophenyl-β-D-glucuronide (30 μM); (5) GlcUA (15 μM); (6) GlcUA (30 μM); (7) GlcNAc (15 μM); (8) GlcNAc (30 μM); (9) AFA=GlcUA-fluorescein-GlcUA (15 μM); (10) AFA (30 μM); (11) Hep4=base de-acetylated, nitrous acid, & reduced heparosan tetrasaccharide (15 μM); and (12) Hep4 (30 μM). Size control (i.e., differences in molecular weight between 15 and 30 μM) is noted with certain acceptors.
# The recombinant Comononas testosteroni synthase was incubated with both UDP-sugars and various acceptors OR ‘no acceptor’ in reaction buffer. From left to right in FIG. 21, the lanes are listed below in Table 3.
# For all acceptors except Hep4 and AFA, the final acceptor was produced in situ before elongation by extending step-wise with the next two appropriate UDP-sugars. For example, GlcUA was extended first with UDP-GlcNAc, then UDP-GlcUA (making a trisaccharide) before the complete polymerization reaction components (i.e., a mixture of many equivalents of UDP-GlcUA and UDP-GlcNAc together to allow the production of long polymer chains) were added. Two different concentrations of the acceptor were added (either 15 or 30 μM as noted) to test the effect of stoichiometric size control.
# [5] = test system: recombinant Comamonas testosteronan synthase (CtTS); assay: Radiolabeled sugar polymerization assay, acceptor specificity of CtTS; assay type: biochemical, Comamonas testosteroni KF-1; conditions: radiolabeled UDP-sugars; acceptor 1 μg
# Procedure: FIG. 4 graphically depicts the acceptor specificity of CtTS. Extension of exogenous polysaccharide by recombinant Comamonas testosteronan synthase was measured. Activity assays were performed with radiolabeled UDP-sugars in the presence of hyaluronan, unsulfated chondroitin, heparosan or sonicated Comamonas polysaccharide.
# Acceptor Specificity of CtTS: To identify the acceptor preference of CtTS, radiolabeled sugar polymerization assays were performed in the presence of various GAG acceptors. In many, but not all, GAG synthases, exogenous cognate polysaccharide will increase the signal in sugar incorporation assays by bypassing the slower de novo initiation phase (DeAngelis et al., 1999 and 2004); the elongation phase is much more rapid; thus, higher activity is observed. Typically, non-cognate GAG polymers with different glycosidic linkage patterns are very poor or non-functional acceptors for the known GAG synthases in vitro. Hyaluronan, unsulfated chondroitin and heparosan as well as polysaccharide extract from C. testosteroni were tested. Hyaluronan and heparosan tetrasaccharides were also tested for their abilities to act as acceptors. […] To confirm that CtTS is able to directly extend a heparosan acceptor so as to rule out an artifactual stabilizing or conformational effect in the radioassays, an ^125I-labeled tetrasaccharide heparosan acceptor was also tested in vitro in the presence of only UDP-GlcNAc for single sugar addition, or UDP-GlcNAc and UDP-GlcUA for polymerization.
# as §2, with “Certain reactions used acceptors (1 μg) to bypass de novo initiation, including HA, heparosan, or Ct polysaccharide (sonicated 10 minutes on ice to increase the number of termini).” left out
# Target sequence in this assay (as listed by the source): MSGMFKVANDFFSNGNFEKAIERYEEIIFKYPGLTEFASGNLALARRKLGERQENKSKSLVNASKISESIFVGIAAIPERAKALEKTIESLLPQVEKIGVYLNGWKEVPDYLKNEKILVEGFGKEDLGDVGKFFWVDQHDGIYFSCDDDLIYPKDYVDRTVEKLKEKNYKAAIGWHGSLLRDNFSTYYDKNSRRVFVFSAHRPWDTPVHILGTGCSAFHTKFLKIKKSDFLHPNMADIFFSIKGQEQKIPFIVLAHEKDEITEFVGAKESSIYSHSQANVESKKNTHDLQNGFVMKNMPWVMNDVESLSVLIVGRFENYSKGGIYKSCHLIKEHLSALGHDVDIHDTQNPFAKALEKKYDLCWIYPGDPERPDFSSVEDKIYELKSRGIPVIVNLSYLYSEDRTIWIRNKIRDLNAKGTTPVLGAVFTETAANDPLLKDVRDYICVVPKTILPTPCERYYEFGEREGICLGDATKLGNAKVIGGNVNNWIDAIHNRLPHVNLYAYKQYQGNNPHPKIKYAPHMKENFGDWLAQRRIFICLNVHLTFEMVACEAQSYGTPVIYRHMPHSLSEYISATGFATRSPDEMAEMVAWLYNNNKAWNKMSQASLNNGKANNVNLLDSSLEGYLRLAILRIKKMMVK
# [6] = test system: Proteus vulgaris chondroitinase ABC; assay: GAG degrading enzyme challenge: chondroitinase ABC; assay type: in vitro ADME
# From the text: as §1
# [7] = test system: Streptomyces hyalurolyticus HA lyase; assay: GAG degrading enzyme challenge: HA lyase; assay type: in vitro ADME
# From the text: as §1
# Sequence of heparin lyase I (Q05819 22-384): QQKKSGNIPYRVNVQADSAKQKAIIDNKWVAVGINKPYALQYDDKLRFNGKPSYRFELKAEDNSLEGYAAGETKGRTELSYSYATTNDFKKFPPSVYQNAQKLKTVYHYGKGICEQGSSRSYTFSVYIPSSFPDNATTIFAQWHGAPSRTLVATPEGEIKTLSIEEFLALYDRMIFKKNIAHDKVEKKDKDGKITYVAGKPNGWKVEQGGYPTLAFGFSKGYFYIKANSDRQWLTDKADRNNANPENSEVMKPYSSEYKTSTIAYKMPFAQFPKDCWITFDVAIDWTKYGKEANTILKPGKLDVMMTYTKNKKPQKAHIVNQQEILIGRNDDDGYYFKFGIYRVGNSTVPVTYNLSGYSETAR
molecule,measurement,setting,value
"[-4-D-GlcUA-α1,4-D-GlcNAc-α1-]n [testosteronan]",sensitivity to degradation by heparin lyase I,[1],did not digest
[Mn+2] [Mn^2+],GT activity of CtTS in the presence of divalent cation or chelator,[2],supported GT activity
O=C(O)[C@H]1O[C@H](OP(=O)(O)OP(=O)(O)OC[C@H]2O[C@@H](n3ccc(=O)[nH]c3=O)[C@H](O)[C@@H]2O)[C@H](O)[C@@H](O)[C@@H]1O [UDP-GlcUA],incorporation of [3H]GlcNAc with the unlabeled UDP-sugar as second precursor,[3],significant incorporation
CC(=O)N[C@H]1[C@@H](OP(=O)(O)OP(=O)(O)OC[C@H]2O[C@@H](n3ccc(=O)[nH]c3=O)[C@H](O)[C@@H]2O)O[C@H](CO)[C@@H](O)[C@@H]1O [UDP-GlcNAc],activity (incorporation of [3H]GlcUA) with the unlabeled UDP-sugar as second precursor,[3],Significant activity
GlcUA-fluorescein-GlcUA [AFA],stoichiometric size control of testosteronan product by acceptor,[4],efficient size control
O=C(O)[C@H]1O[C@H](OP(=O)(O)OP(=O)(O)OC[C@H]2O[C@@H](n3ccc(=O)[nH]c3=O)[C@H](O)[C@@H]2O)[C@H](O)[C@@H](O)[C@H]1O [UDP-GalUA],incorporation of [3H]GlcNAc with the unlabeled UDP-sugar as second precursor,[3],only the reactions containing UDP-GlcUA showed significant incorporation
"O=C(O)[C@H]1O[C@@H](Oc2ccc([N+](=O)[O-])cc2)[C@H](O)[C@@H](O)[C@@H]1O [p-Nitrophenyl-D-glucuronide, p-Nitrophenyl-β-D-glucuronide]",stoichiometric size control of testosteronan product by acceptor,[4],allowed efficient size control
"CC(=O)N[C@H]1C(O)O[C@H](CO)[C@@H](O)[C@@H]1O (stereo partly shown) [GlcNAc, N-acetylglucosamine]",stoichiometric size control of testosteronan product by acceptor,[4],did not
O=C(O)CN(CCN(CC(=O)O)CC(=O)O)CC(=O)O [EDTA],GT activity of CtTS in the presence of divalent cation or chelator,[2],eradicated the polymerization signal
[Mg+2] [Mg^2+],GT activity of CtTS in the presence of divalent cation or chelator,[2],roughly twice as for Mn^2+
"[-4-D-GlcUA-β1,4-D-GlcNAc-α1-]n [heparosan]",use of exogenous GAG polysaccharide as acceptor by CtTS,[5],able to use; also recorded: capable of utilizing
"[-4-D-GlcUA-α1,4-D-GlcNAc-α1-]n [synthetic polysaccharide]",sensitivity to degradation by Proteus vulgaris chondroitinase ABC,[6],insensitive to degradation
same,sensitivity to degradation by Streptomyces hyalurolyticus HA lyase,[7],insensitive to degradation
same,sensitivity to degradation by heparin lyase I,[1],insensitive to degradation
chondroitin,use of exogenous GAG polysaccharide as acceptor by CtTS,[5],not
"O=C[C@H](O)[C@@H](O)[C@H](O)[C@H](O)C(=O)O [GlcUA, glucuronic acid]",stoichiometric size control of testosteronan product by acceptor,[4],allowed efficient size control
CC(=O)N[C@H]1[C@@H](OP(=O)(O)OP(=O)(O)OC[C@H]2O[C@@H](n3ccc(=O)[nH]c3=O)[C@H](O)[C@@H]2O)O[C@H](CO)[C@H](O)[C@@H]1O [UDP-GalNAc],activity (incorporation of [3H]GlcUA) with the unlabeled UDP-sugar as second precursor,[3],not
"[-4-D-GlcUA-β1,3-D-GlcNAc-β1-]n [hyaluronan]",use of exogenous GAG polysaccharide as acceptor by CtTS,[5],not
O=C(O)[C@@H]1O[C@@H](OP(=O)(O)OP(=O)(O)OC[C@H]2O[C@@H](n3ccc(=O)[nH]c3=O)[C@H](O)[C@@H]2O)[C@H](O)[C@@H](O)[C@@H]1O [UDP-IdoUA],incorporation of [3H]GlcNAc with the unlabeled UDP-sugar as second precursor,[3],only the reactions containing UDP-GlcUA showed significant incorporation
